Reference: the NIST ThermoML archive (doi:10.1016/j.jct.2005.03.012)
± gives the expanded uncertainty stated by the source.

Experiment: molar heat capacity at constant pressure
Conditions: Liquid, Flow calorimetry

CO [methanol]
molar heat capacity at constant pressure (248.15 K, 500 kPa): 74.02 ± 0.26 J/K/mol | molar heat capacity at constant pressure (248.15 K, 1000 kPa): 74.02 ± 0.26 J/K/mol | molar heat capacity at constant pressure (248.15 K, 2500 kPa): 73.95 ± 0.26 J/K/mol | molar heat capacity at constant pressure (248.15 K, 5000 kPa): 73.89 ± 0.26 J/K/mol | molar heat capacity at constant pressure (248.15 K, 7500 kPa): 73.79 ± 0.26 J/K/mol | molar heat capacity at constant pressure (248.15 K, 10000 kPa): 73.79 ± 0.26 J/K/mol | molar heat capacity at constant pressure (248.15 K, 12500 kPa): 73.76 ± 0.26 J/K/mol | molar heat capacity at constant pressure (273.15 K, 500 kPa): 77.03 ± 0.26 J/K/mol | molar heat capacity at constant pressure (273.15 K, 1000 kPa): 77 ± 0.26 J/K/mol | molar heat capacity at constant pressure (273.15 K, 2500 kPa): 76.93 ± 0.26 J/K/mol | molar heat capacity at constant pressure (273.15 K, 5000 kPa): 76.84 ± 0.26 J/K/mol | molar heat capacity at constant pressure (273.15 K, 7500 kPa): 76.8 ± 0.26 J/K/mol | molar heat capacity at constant pressure (273.15 K, 10000 kPa): 76.77 ± 0.26 J/K/mol | molar heat capacity at constant pressure (273.15 K, 12500 kPa): 76.74 ± 0.26 J/K/mol | molar heat capacity at constant pressure (298.15 K, 500 kPa): 81.39 ± 0.29 J/K/mol | molar heat capacity at constant pressure (298.15 K, 1000 kPa): 81.35 ± 0.29 J/K/mol | molar heat capacity at constant pressure (298.15 K, 2500 kPa): 81.19 ± 0.29 J/K/mol | molar heat capacity at constant pressure (298.15 K, 5000 kPa): 81.07 ± 0.29 J/K/mol | molar heat capacity at constant pressure (298.15 K, 7500 kPa): 81.03 ± 0.29 J/K/mol | molar heat capacity at constant pressure (298.15 K, 10000 kPa): 80.91 ± 0.26 J/K/mol | molar heat capacity at constant pressure (298.15 K, 12500 kPa): 80.91 ± 0.26 J/K/mol | molar heat capacity at constant pressure (323.15 K, 500 kPa): 86.87 ± 0.29 J/K/mol | molar heat capacity at constant pressure (323.15 K, 1000 kPa): 86.8 ± 0.29 J/K/mol | molar heat capacity at constant pressure (323.15 K, 2500 kPa): 86.64 ± 0.29 J/K/mol | molar heat capacity at constant pressure (323.15 K, 5000 kPa): 86.45 ± 0.29 J/K/mol | molar heat capacity at constant pressure (323.15 K, 7500 kPa): 86.29 ± 0.29 J/K/mol | molar heat capacity at constant pressure (323.15 K, 10000 kPa): 86.13 ± 0.29 J/K/mol | molar heat capacity at constant pressure (323.15 K, 12500 kPa): 86 ± 0.29 J/K/mol | molar heat capacity at constant pressure (348.15 K, 500 kPa): 93.66 ± 0.32 J/K/mol | molar heat capacity at constant pressure (348.15 K, 1000 kPa): 93.59 ± 0.32 J/K/mol | molar heat capacity at constant pressure (348.15 K, 2500 kPa): 93.43 ± 0.32 J/K/mol | molar heat capacity at constant pressure (348.15 K, 5000 kPa): 93.18 ± 0.32 J/K/mol | molar heat capacity at constant pressure (348.15 K, 7500 kPa): 92.92 ± 0.32 J/K/mol | molar heat capacity at constant pressure (348.15 K, 10000 kPa): 92.73 ± 0.32 J/K/mol | molar heat capacity at constant pressure (348.15 K, 12500 kPa): 92.41 ± 0.32 J/K/mol | molar heat capacity at constant pressure (373.15 K, 500 kPa): 101.83 ± 0.35 J/K/mol | molar heat capacity at constant pressure (373.15 K, 1000 kPa): 101.76 ± 0.35 J/K/mol | molar heat capacity at constant pressure (373.15 K, 2500 kPa): 101.41 ± 0.35 J/K/mol | molar heat capacity at constant pressure (373.15 K, 5000 kPa): 101 ± 0.35 J/K/mol | molar heat capacity at constant pressure (373.15 K, 7500 kPa): 100.64 ± 0.35 J/K/mol | molar heat capacity at constant pressure (373.15 K, 10000 kPa): 100.23 ± 0.32 J/K/mol | molar heat capacity at constant pressure (373.15 K, 12500 kPa): 99.97 ± 0.32 J/K/mol | molar heat capacity at constant pressure (398.15 K, 1000 kPa): 111.86 ± 0.38 J/K/mol | molar heat capacity at constant pressure (398.15 K, 2500 kPa): 111.28 ± 0.38 J/K/mol | molar heat capacity at constant pressure (398.15 K, 5000 kPa): 110.38 ± 0.38 J/K/mol | molar heat capacity at constant pressure (398.15 K, 7500 kPa): 109.58 ± 0.35 J/K/mol | molar heat capacity at constant pressure (398.15 K, 10000 kPa): 108.97 ± 0.35 J/K/mol | molar heat capacity at constant pressure (398.15 K, 12500 kPa): 108.33 ± 0.35 J/K/mol | molar heat capacity at constant pressure (423.15 K, 2500 kPa): 122.98 ± 0.42 J/K/mol | molar heat capacity at constant pressure (423.15 K, 5000 kPa): 121.41 ± 0.42 J/K/mol | molar heat capacity at constant pressure (423.15 K, 7500 kPa): 120.03 ± 0.42 J/K/mol | molar heat capacity at constant pressure (423.15 K, 10000 kPa): 118.84 ± 0.38 J/K/mol | molar heat capacity at constant pressure (423.15 K, 12500 kPa): 117.85 ± 0.38 J/K/mol | molar heat capacity at constant pressure (473.15 K, 5000 kPa): 162.32 ± 0.54 J/K/mol | molar heat capacity at constant pressure (473.15 K, 7500 kPa): 152.94 ± 0.51 J/K/mol | molar heat capacity at constant pressure (473.15 K, 10000 kPa): 146.91 ± 0.48 J/K/mol | molar heat capacity at constant pressure (473.15 K, 12500 kPa): 142.75 ± 0.48 J/K/mol
